From the supplement of paper PMC6723410

Legend:
GUMC-403 [1] = assay: AC50 for reduction of cell viability; higher = less potent; settings: 48 h
GUMC-403 [2] = assay: viability at highest tested concentration (max response) relative to DMSO (% of DMSO control); higher = less cytotoxic; settings: library / dose series: MIPE library, 11-point 1:3 dilution, 48 h
Method in brief: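 This value is viability at the highest tested concentration relative to vehicle control. GUMC-403 papilloma cells from a patient, grown by conditional reprogramming, were plated at 700/well in 1536-well plates and given 23 nL of compound by pin tool for 48 h. CellTiter-Glo luminescence on a ViewLux was normalised with vehicle wells at 100% and empty wells at 0%.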

[3] = library / dose series: MIPE library, 11-point 1:3 dilution
[4] = library / dose series: NPC library, 8-point 1:5 dilution

Row | Compound | AC50 for reduction of cell viability (GUMC-403 [1]; [3]) | viability (GUMC-403 [2]; top concentration 46.1 µM) | viability (GUMC-403 [2]; top concentration 92.2 µM) | AC50 for reduction of cell viability (GUMC-403 [1]; [4])
1 | CNC(=O)[C@H](Cc1ccccc1)NC(=O)[C@H](CC(C)C)[C@H](CSc1cccs1)C(=O)NO | 5.26 µM | 68.4 |  | 
2 | CC(C)C1=N[N](C\2=C1C(=O)N\C(=N2)CC3=CC=C(OCCO)C=C3)C4=C(Cl)C=CC=C4Cl | 0.132 µM | 47.9 |  | 
3 | Oc1cccc(-c2nc(N3CCOCC3)c3oc4ncccc4c3n2)c1 | 0.762 µM |  | 28.3 | 
4 | NC1(C(=O)N[C@@H](CCO)c2ccc(Cl)cc2)CCN(c2ncnc3[nH]ccc23)CC1 | 16.6 µM | 33.6 |  | 
5 | CC/1=C(\O)C(=O)\C=C2/C1=C/C=C3\[C@@]2(C)CC[C@@]4(C)[C@@H]5C[C@@](C)(CC[C@]5(C)CC[C@]34C)C(O)=O | 8.33 µM | 6.06 |  | 
6 | COc1c(C)cnc(Cn2cnc3c(Cl)nc(N)nc32)c1C | 2.96 µM | 61.4 |  | 
7 | OCCCNc1cc(-c2ccnc(Nc3cccc(Cl)c3)n2)ccn1 | 0.105 µM | 63.6 |  | 
8 | CCOC(=O)[C@H](CCc1ccccc1)N[C@@H](C)C(=O)N1[C@H](C(=O)O)C[C@@H]2CCC[C@@H]21 | 26.4 µM | 4.65 |  | 
9 | Cc1n[nH]c2ccc(-c3cncc(OC[C@@H](N)Cc4c[nH]c5ccccc45)c3)cc12 | 1.87 µM | 7.23 |  | 
10 | COC1=CC=C(C=N1)C/2=C/C3=C(C)N=C(N)N=C3N(C4CCC(CC4)OCCO)C2=O (configuration not stated) | 0.264 µM | 4.47 |  | 
11 | NC(=O)Nc1cc(-c2cccc(F)c2)sc1C(=O)N[C@H]1CCCNC1 | 16.6 µM | 12.8 |  | 
12 | CO[C@H]1/C=C/O[C@@]2(C)Oc3c(C)c(O)c4c(O)c(c(/C=N\N5CCN(C6CCCC6)CC5)c(O)c4c3C2=O)NC(=O)/C(C)=C\C=C\[C@H](C)[C@H](O)[C@@H](C)[C@@H](O)[C@@H](C)[C@H](OC(C)=O)[C@@H]1C | 0.296 µM | 56 |  | 
13 | O=C(OC)[C@]12CC[C@@]3(C)[C@]4(C)CC[C@H]5[C@@](C)(C)C(=O)C(=C[C@]5(C)C4=CC(=O)[C@@H]3[C@@H]2C[C@](C)(C)CC1)C#N | 2.96 µM | 4.67 |  | 
14 | Cc1cnc(Nc2ccc(N3CCN(C)CC3)cc2)nc1Nc1cccc([S+](=O)([O-])NC(C)(C)C)c1 | 16.6 µM | 30.2 |  | 
15 | O=C(/C=C/c1ccc(CN(CCO)CCc2c[nH]c3ccccc23)cc1)NO | 5.9 µM | 44.9 |  | 
16 | CC1=C2N=C([NH]C2=CC(=C1)N3CCOCC3)\C4=C(NC[C@@H](O)C5=CC=CC(=C5)Cl)\C=C/NC4=O | 0.235 µM | 13.8 |  | 
17 | Cc1nc(Nc2n[nH]c3c2CN(C(=O)N[C@H](CN(C)C)c2ccccc2)C3(C)C)c2sccc2n1 | 3.72 µM | 7.84 |  | 
18 | CC(C)Oc1cc(Nc2nc(N[C@@H](C)c3ccc(F)cn3)ncc2Cl)n[nH]1 | 8.33 µM | 58.4 |  | 
19 | CN[C@@H]1C[C@H]2O[C@@](C)([C@@H]1OC)n1c3ccccc3c3c4c(c5c6ccccc6n2c5c31)C(=O)N[C@H]4O | 1.48 µM | 8.86 |  | 
20 | NCC(=O)Nc1ccc(-n2nc(C(F)(F)F)cc2-c2ccc3c(ccc4ccccc43)c2)cc1 | 26.4 µM | 1.75 |  | 
21 | Cl.Cl.Fc1ccc(C(OCCN2CCN(CCCc3ccccc3)CC2)c2ccc(F)cc2)cc1 |  | 67.6 |  | 11.9 µM

Row | Compound | AC50 for reduction of cell viability (GUMC-403 [1]; [3]) | viability (GUMC-403 [2]; top concentration 46.1 µM) | viability (GUMC-403 [2]; top concentration 92.2 µM) | AC50 for reduction of cell viability (GUMC-403 [1]; [4])
22 | CC[C@@]1(O)C(=O)OC\C2=C1\C=C\3N(CC4=C3N=C5C=CC=CC5=C4)C2=O | 16.6 µM | 32.3 |  | 
23 | COc1cccc2c1C(=O)c1c(O)c3c(c(O)c1C2=O)C[C@@](O)(C(=O)CO)C[C@@H]3O[C@H]1C[C@H](N)[C@@H](O)[C@H](C)O1 | 2.09 µM | 48.5 |  | 
24 | COc1cc2ncnc(Nc3cc(Br)c(O)c(Br)c3)c2cc1OC | 1.48 µM | 73.9 |  | 
25 | CC(NCc1ccc2c(c1)[nH]/c(=N\C(=O)c1ccc(-c3cn[nH]c3)s1)n2CC(C)(C)O)C(C)(C)C (configuration not stated) | 0.935 µM | 6.2 |  | 
26 | CC(C)[C@]12O[C@H]1[C@@H]3O[C@@]34[C@@]5(C)CC\C6=C(COC6=O)/[C@@H]5C[C@@H]7O[C@]47[C@@H]2O | 0.0332 µM | 22.7 |  | 
27 | Cc1nc(Nc2ncc(C(=O)Nc3c(C)cccc3Cl)s2)cc(N2CCN(CCO)CC2)n1 [listing 1 of 2 here] | 0.209 µM | 58.6 |  | 
28 | CN(C)C1=CC=C(C=C1)C(C2=CC=C(C=C2)N(C)C)=C/3\C=C/C(/C=C3)=[N+](C)C | 14.8 µM | 4.73 |  | 
29 | CN(C)c1ccc(C(=O)NCCCCCCC(=O)NO)cc1 | 18.7 µM | 33.9 |  | 
30 | CN[C@@H]1[C@H](O)[C@H](NC)[C@H]2O[C@@]3(O)C(=O)C[C@@H](C)O[C@H]3O[C@@H]2[C@H]1O | 10.5 µM | 13.3 |  | 
31 | CC[S+](=O)([O-])Nc1ccc2c(c1)/C(=C(/Nc1ccc(CN3CCCCC3)cc1)c1ccccc1)C(=O)N2 | 1.32 µM | 50 |  | 
32 | COc1cc2ncnc(Nc3ccc(F)c(Cl)c3)c2cc1OCCCN1CCOCC1 [listing 1 of 2 here] | 0.27 µM |  | 58.7 | 
33 | CCN(CC)C(=S)SSC(=S)N(CC)CC |  | 58.9 |  | 24.8 µM
34 | CC(C)C[C@@H](C=O)NC(=O)[C@H](CC(C)C)NC(=O)[C@H](CC(C)C)NC(=O)OCc1ccccc1 | 10.5 µM | 9.05 |  | 
35 | CC(=O)Nc1nc(C)c(-c2ccc(Cl)c([S+](=O)([O-])NCCO)c2)s1 | 14.8 µM | 12.5 |  | 
36 | CC1(C)OC/2=C(\[C@H](NCC3=CC=CC=C3)[C@@H]1O)C(=O)C4=CC=CC=C4C2=O | 7.43 µM | 5.84 |  | 
37 | C=CC(=O)Nc1cccc(Nc2nc(NC3CCC(N(C)C)CC3)nc3c2ncn3C(C)C)c1 (configuration not stated) | 2.96 µM | 8.03 |  | 
38 | CC[S+](=O)([O-])c1cccc(-c2cc(C(=O)NC3CCN(C)CC3)c(C)c3[nH]c4ncc(C)cc4c23)c1 | 4.69 µM | 75.8 |  | 
39 | C[C@@H](Oc1ccc2[nH]nc(/C=C/c3cnn(CCO)c3)c2c1)c1c(Cl)cncc1Cl | 16.6 µM | 18.4 |  | 
40 | CCCCCNC(=N)N/N=C/c1c[nH]c2ccc(OC)cc12 |  |  |  | 18.8 µM
41 | C/C(C)=C\CNc3ncnc1c3ncn1[C@@H]2O[C@H](CO)[C@@H](O)[C@H]2O |  |  |  | 9.44 µM
42 | N=C(N/N=C\c1ccc(Cl)cc1)N/N=C/c1ccc(Cl)cc1 |  |  |  | 8.41 µM

Row | Compound | AC50 for reduction of cell viability (GUMC-403 [1]; [3]) | viability (GUMC-403 [2]; top concentration 46.1 µM) | viability (GUMC-403 [2]; top concentration 92.2 µM) | AC50 for reduction of cell viability (GUMC-403 [1]; [4])
43 | Cc1cc(N)c2cc(NC(=O)Nc3ccc4nc(C)cc(N)c4c3)ccc2n1.Cl.Cl |  |  |  | 3.76 µM
44 | CCCCCCCCCCCC[N+](C)(C)CCOc1ccccc1.[Br-] |  |  |  | 26.6 µM
45 | CO[C@@]12[C@H](COC(N)=O)C3=C(C(=O)C(C)=C(N)C3=O)N1C[C@@H]1N[C@@H]12 |  |  |  | 16.8 µM
46 | O=C(CCCN1CC=C(n2c(=O)[nH]c3ccccc32)CC1)c1ccc(F)cc1 |  |  |  | 18.8 µM
47 | CCOC(=O)[C@@](C)(N)Cc1ccc(O)c(O)c1.Cl |  |  |  | 6.68 µM
48 | C=C[C@@]1(C)CC(=O)[C@]2(O)[C@@]3(C)[C@@H](O)CCC(C)(C)[C@@H]3[C@H](O)[C@H](OC(C)=O)[C@@]2(C)O1 |  |  |  | 1.68 µM
49 | CCN1C(=CC=Cc2ccc3ccccc3[n+]2CC)C=Cc2ccccc21.[I-] |  |  |  | 2.66 µM
50 | O=c1[nH]c2ccccc2n1C1CCN(CCCC(c2ccc(F)cc2)c2ccc(F)cc2)CC1 |  |  |  | 2.66 µM
51 | C[n+]1cc2c3c(ccc2c2ccc4cc5c(cc4c21)OCO5)OCO3 |  |  |  | 1.3 µM
52 | CCCCC(CC)CNC(=N)NC(=N)NCCCCCCNC(=N)NC(=N)NCC(CC)CCCC.Cl.Cl (configuration not stated) |  |  |  | 2.66 µM
53 | CC(=O)Oc1ccc(C2(c3ccc(OC(C)=O)cc3)C(=O)Nc3ccccc32)cc1 |  |  |  | 0.841 µM
54 | CN(C)c1ccc2nc3ccc(N(C)C)cc3[s+]c2c1.[Cl-] |  |  |  | 26.6 µM
55 | C[C@@H]1O[C@@H](O[C@@H]2C=C3CC[C@@H]4[C@H](CC[C@]5(C)[C@@H](c6ccc(=O)oc6)CC[C@]45O)[C@@]3(C)CC2)[C@H](O)[C@H](O)[C@H]1O |  |  |  | 0.0119 µM
56 | CC(O)C(=O)O.CCOc1ccc2nc3cc(N)ccc3c(N)c2c1.O |  |  |  | 18.8 µM
57 | CC[C@H](O)C(C[C@H](C)N(C)C)(c1ccccc1)c1ccccc1.Cl |  |  |  | 44.1 µM
58 | COc1cccc2c1C(=O)c1c(O)c3c(c(O)c1C2=O)C[C@@](O)(C(=O)CO)C[C@@H]3O[C@H]1C[C@H](N)[C@H](O)[C@H](C)O1.Cl |  |  |  | 11.9 µM
59 | CCN(CC)CCNc1ccc(CO)c2sc3ccccc3c(=O)c12 |  |  |  | 26.6 µM
60 | COc1cc2ncnc(Nc3ccc(F)c(Cl)c3)c2cc1OCCCN1CCOCC1 [listing 2 of 2 here] |  |  |  | 1.19 µM
61 | COc1cccc2c1C(=O)c1c(O)c3c(c(O)c1C2=O)C[C@@](O)(C(C)=O)C[C@@H]3O[C@H]1C[C@H](N)[C@H](O)[C@H](C)O1 |  |  |  | 2.66 µM
62 | Cc1nc(Nc2ncc(C(=O)Nc3c(C)cccc3Cl)s2)cc(N2CCN(CCO)CC2)n1 [listing 2 of 2 here] |  |  |  | 0.0841 µM
63 | C#Cc1cccc(Nc2ncnc3cc(OCCOC)c(OCCOC)cc23)c1 |  |  |  | 0.106 µM
